According to PMC6429087, “Identification of Leishmania major UDP-Sugar Pyrophosphorylase Inhibitors Using Biosensor-Based Small Molecule Fragment Library Screening” (Molecules, 2019):
Read-outs that look alike come from different tables or passages of the source. Blank lines part the entries; values can stand above or below the molecule they belong to.

Assays:
[1] = target: T1, LmUSP (Leishmania major, UniProt D3G6S4); test: Bio-layer interferometry (BLI) binding to biotinylated LmUSP on Super Streptavidin biosensors; details: for Primary Binding Response: BLI primary screen, fragment 200 µM, 200 µM UTP in running buffer
Method: A vector containing the His(6)-biotin acceptor peptide (BAP) tag was kindly provided by Prof. Mike Ferguson from the University of Dundee. The BAP tag was inserted in the XbaI and NdeI restrictions site of the previously described pET22b-LmUSP [21]. The plasmid with insert was then transformed into the E. coli BL21(DE3) expression strain, and LmUSP was expressed and purified, as described previously. Exactly 2 mg of TEV protease was added to cleave off the His tag. The protein was dialyzed in 3 × 1 L Buffer C (50 mM TRIS pH 8.0, 150 mM NaCl, 10 mM MgCl2). A concentration of 100 µM D-Biotin, 500 µM ATP, and […] BirA enzyme were added to the protein and incubated for 18 hr for biotinylation. The sample was concentrated to 11 mL, using a Vivaspin 20 30 kDa PES centrifugal concentrator (Sartorious, Stonehouse, United Kingdom). The protein was loaded onto a Superdex 200 XK26/60 equilibrated with Buffer C on the AKTA Pure at 4 °C. The eluted monomeric protein was then concentrated to 0.98 mg/mL using a Vivaspin 20 30 kDa PES centrifugal concentrator, and used for loading onto super streptavidin (SSA) biosensors (Fortebio, Shanghai, China, Part No. 18-5057, Lot No. 1612162).
The loading response to SSA biosensors was measured to find the optimal protein concentration to be used for the screen. Briefly, biosensor tips were hydrated in assay buffer (50 mM Tris pH 8.0, 150 mM NaCl, 10 mM MgCl2) for a minimum of 5 min before being sequentially transferred to assay wells containing 1) assay buffer (60 s) to establish the baseline, 2) protein at 12.5, 25, or 50 µg/mL (900 s) to measure protein loading, and 3) assay buffer to assess the reversibility of protein binding to the sensor.
For fragment screening, 16 SSA biosensors were prepared by loading LmUSP (12.5 µg/mL) for 900 s; free streptavidin sites were then blocked with biocytin (10 µg/mL) for 120 s, and finally washed in buffer W (50 mM Tris pH 8.0, 150 mM NaCl, 10 mM MgCl2, 200 µM UTP) for 60 s. In parallel, another 16 SSA sensors were loaded with 10 µg/mL biocytin alone, which acts as a quenching agent to block streptavidin sites on the sensor surface, and then washed with buffer W. These were used as reference sensors.
Initial screening was performed with DDU fragment set (965 fragments) at a single point concentration of 200 µM. The assay consisted of a 60 s baseline step, a 60 s association step, and a 60 s dissociation step. The assay was repeated with the streptavidin blocked control biosensors. Response levels for each compound were calculated by baseline subtraction, and the subtraction of the reference responses from the LmUSP responses. From the initial putative hits, compounds were further validated in a […] concentration series using 3-fold dilutions of each fragment ranging from 500 µM to 2.05 µM. Data were processed, and kinetic parameters were calculated, using the ForteBio software. A visual inspection of curves alongside steady state fitting was used to identify fragments of interest.

[2] = target: LmUGP (Leishmania major, UniProt Q4QDU3); test: HPLC-based enzyme activity assay, LmUGP (UDP-Glc production); assay type: biochemical; details: for IC50: 95% confidence intervals, concentrations 7 µM to 500 µM; for inhibition at 500 µM: 500 µM compound, 10% DMSO
Method: (§1) Compounds were tested at a concentration of 500 µM with 20 nM enzyme in an high-performance liquid chromatography (HPLC)-based assay at a final reaction volume of 100 µL. The DMSO concentration in the reaction was kept at 10%. The reaction buffer consisted of 10 mM Tris-HCl pH 8.0, 2 mM MgCl2, 10 mM NaCl, 0.005 U of inorganic pyrophosphatase (Thermo Fisher Scientific, Vilnius, Lithuania), and 1 mM Dithiothreitol (DTT) (for LmUSP and LmUGP only). Protein was incubated with the inhibitors and UTP (final concentration of 0.8 mM in reaction) for 30 min at room temperature, before the addition of the reaction buffer. […] The samples were spun down and the supernatants applied to a Dionex CarboPac™ PA10 column (Thermo Fisher Scientific, Sunnyvale, CA, USA). UDP-Gal or UDP-Glc (products) were separated from UTP (substrate), UMP, and UDP (both, UTP hydrolysis products) with a NaCl gradient elution ranging from 0 to 500 mM NaCl over 13 min at 0.6 mL/min. Absorption of the uracil moiety was detected at 260 nm. The peak area of UDP-Gal or UDP-Glc in reactions with inhibitors was compared to a control containing 10% DMSO. Protein concentrations were calculated from the measured UV-absorbance at 280 nm (Implen NanoPhotometer N60, Implen GmbH, München, Germany), and the proteins’ individual extinction coefficients were calculated using the online ProtParam tool (http://web.expasy.org/protparam/). […] Corresponding IC50 values were calculated by using nonlinear regression analysis with variable slope, in GraphPad Prism version 4.00 (GraphPad Software, San Diego, CA, USA).

[3] = target: T2, hUGP (Homo sapiens, UniProt Q16851); test: HPLC-based enzyme activity assay, hUGP; assay type: biochemical; details: 10% DMSO; for inhibition of hUGP (in words): 500 µM / high compound concentration; for decrease of hUGP activity: 500 µM compound
T2 construct: made in house
T2 sequence (Q16851 1-508): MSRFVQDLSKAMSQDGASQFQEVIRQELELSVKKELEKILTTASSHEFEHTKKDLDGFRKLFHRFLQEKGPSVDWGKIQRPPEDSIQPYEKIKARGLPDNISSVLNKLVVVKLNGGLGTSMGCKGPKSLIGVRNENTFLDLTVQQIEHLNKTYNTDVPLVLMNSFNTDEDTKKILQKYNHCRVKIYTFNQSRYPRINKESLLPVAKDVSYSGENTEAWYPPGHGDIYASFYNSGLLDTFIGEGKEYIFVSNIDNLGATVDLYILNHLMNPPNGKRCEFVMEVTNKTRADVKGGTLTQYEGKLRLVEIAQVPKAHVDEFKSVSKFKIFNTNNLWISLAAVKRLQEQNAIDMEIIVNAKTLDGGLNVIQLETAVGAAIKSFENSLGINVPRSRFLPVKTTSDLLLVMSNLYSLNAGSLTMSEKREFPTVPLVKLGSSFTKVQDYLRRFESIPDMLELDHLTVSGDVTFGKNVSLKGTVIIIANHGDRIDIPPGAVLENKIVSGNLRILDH
Method: as §1

[4] = target: T1, LmUSP; test: HPLC-based enzyme activity assay, LmUSP (UDP-Gal production); assay type: biochemical; details: for IC50: 95% confidence intervals, concentrations 7 µM to 500 µM; for inhibition at 500 µM: 500 µM compound, 10% DMSO, read-out: inhibition of LmUSP activity (UDP-Gal production) compared to DMSO control
Method: as §1

[5] = tested on: O=P(O)(O)O[C@H]1O[C@H](CO)[C@H](O)[C@H](O)[C@H]1O; test: purified protein, by the assay type; details: 0.8 mM UTP, 25 °C, pH 8.0
[6] = target: T1, LmUSP; details: read-out: Km value of UTP; cited from earlier work
[7] = BLI 7-point concentration series 2 µM to 500 µM, steady state fitting, read-out: Estimated KD

Molecule: O=C(Cn1c(=O)[nH]c2ccccc2c1=O)NCCc1c[nH]c2ccc(Cl)cc12 [#8B]
IC50 [2]: 55.1 to 69.1 µM | inhibition of hUGP (in words) [3]: clear inhibition | IC50 [4]: 47.2 to 66.4 µM

Molecule: CC(Cc1c[nH]c2ccccc12)NC(=O)Cn1c(=O)[nH]c2ccccc2c1=O (stereo not shown) [#8A]
IC50 [2]: > 250 µM | IC50 [4]: > 250 µM

Molecule: LmUSP F383R mutant (Leishmania major; F383R)
Km ([5]; other: LmUSP F383R): 364.00 ± 22.20 µM | Vmax ([5]; other: LmUSP F383R): 14.8 µmol/min/mg | kcat ([5]; other: LmUSP F383R): 17.3 s⁻¹ | kcat/Km ([5]; other: LmUSP F383R): 47000 M⁻¹ s⁻¹

Molecule: LmUSP wild type (Leishmania major)
Km ([5]; other: wild-type LmUSP): 529.20 ± 24.60 µM | Vmax ([5]; other: wild-type LmUSP): 184 µmol/min/mg | kcat ([5]; other: wild-type LmUSP): 216 s⁻¹ | kcat/Km ([5]; other: wild-type LmUSP): 409000 M⁻¹ s⁻¹

Molecule: O=C(Cn1c(=O)[nH]c2ccccc2c1=O)Nc1ccc2[nH]ccc2c1 [#4]
inhibition at 500 µM [2]: > 95% | IC50 [2]: 126 to 134 µM | inhibition of hUGP (in words) [3]: little effect | decrease of hUGP activity [3]: less than 20% | inhibition at 500 µM [4]: ≥ 80% | IC50 [4]: 135 to 175 µM

Molecule: LmUSP V330W mutant (Leishmania major; V330W)
Km ([5]; other: LmUSP V330W): 1255.00 ± 145.66 µM | Vmax ([5]; other: LmUSP V330W): 272 µmol/min/mg | kcat ([5]; other: LmUSP V330W): 319 s⁻¹ | kcat/Km ([5]; other: LmUSP V330W): 255000 M⁻¹ s⁻¹

Molecule: O=C(Cn1cnc2ccccc2c1=O)NCCc1c[nH]c2ccc(Cl)cc12 [#8D]
IC50 [2]: 193 to 242 µM | inhibition of hUGP (in words) [3]: clear inhibition | IC50 [4]: 170 to 195 µM

Molecule: O=c1ccn([C@@H]2O[C@H](COP(=O)(O)OP(=O)(O)OP(=O)(O)O)[C@@H](O)[C@H]2O)c(=O)[nH]1 [UTP, uridine triphosphate, reference compound]
Km [6]: 100 µM | Kd [1]: 89 µM

Molecule: LmUSP V199W mutant (Leishmania major; V199W)
Km ([5]; other: LmUSP V199W): 1007.25 ± 18.03 µM | Vmax ([5]; other: LmUSP V199W): 76.8 µmol/min/mg | kcat ([5]; other: LmUSP V199W): 90.2 s⁻¹ | kcat/Km ([5]; other: LmUSP V199W): 89000 M⁻¹ s⁻¹

Molecule: COc1ccc2[nH]cc(CCNC(=O)Cn3c(=O)[nH]c4ccccc4c3=O)c2c1 [#8C]
IC50 [2]: > 250 µM | IC50 [4]: > 250 µM

Molecule: LmUSP V330W/F383R mutant (Leishmania major; F383R/V330W)
Km ([5]; other: LmUSP V330W/F383R): 276.45 ± 51.26 µM | Vmax ([5]; other: LmUSP V330W/F383R): 21.8 µmol/min/mg | kcat ([5]; other: LmUSP V330W/F383R): 25.6 s⁻¹ | kcat/Km ([5]; other: LmUSP V330W/F383R): 93000 M⁻¹ s⁻¹

Further lines, results first:

Kd [1, 7]: 67.6 µM | Primary Binding Response [1]: 0.1728
Molecule: Cn1c(=O)n(CCN)c(=O)c2ccccc21 [DDD00808259]

inhibition at 500 µM [2]: > 95% | IC50 [2]: 120 to 151 µM | inhibition of hUGP (in words) [3]: little effect | decrease of hUGP activity [3]: less than 20% | inhibition at 500 µM [4]: ≥ 80% | IC50 [4]: 78.1 to 107 µM
Molecule: O=C(Cn1c(=O)[nH]c2ccccc2c1=O)NCCc1c[nH]c2ccccc12 [#8]

IC50 [2]: 38 to 46.8 µM | inhibition of hUGP (in words) [3]: clear inhibition | IC50 [4]: 40.4 to 46.3 µM
Molecule: O=C(Cn1cnc2ccccc2c1=O)NCCc1c[nH]c2ccc(F)cc12 [#8E]

Kd [1, 7]: 60.1 µM | Primary Binding Response [1]: 0.1541
Molecule: CC(C(=O)O)c1cccc(F)c1 (stereo not shown) [DDD01305586]

Kd [1, 7]: 72.6 µM | Primary Binding Response [1]: 0.077
Molecule: COCCNC(=O)n1c(=O)oc2ccccc21 [DDD00102262]

Kd [1, 7]: 83.3 µM | Primary Binding Response [1]: 0.127
Molecule: O=C(O)Cc1cccc(C(F)(F)F)c1 [DDD00095351]
